Assay results published in patent publication US20250034135A1, “ANTI-APOPTOTIC PROTEIN BCL-2 INHIBITOR, PHARMACEUTICAL COMPOSITION AND USES THEREOF” (HANGZHOU HEALZEN THERAPEUTICS CO., LTD., priority 2021, published 2025).

Biological target: BCL2 (Homo sapiens (Human), UniProt P10415)
Assay: Molecular level activity test of anti-apoptotic protein BCL2 (HTRF, binding to Bim peptide)
Settings: HTRF, binding of BCL2 to Bim peptide; read-out: BCL2 nM (inhibitory activity, IC50)
Protocol: The detection of the binding ability between anti-apoptotic protein BCL2 and pro-apoptotic protein Bim was performed using Homogeneous Time-Resolved Fluorescence technology. The reaction of this method occurred in a white shallow 384-well plate, with a total reaction volume of 10 μL. Specifically, it included 2 μL of the compound to be tested (2% DMSO), 4 μL His-tagged recombinant protein, and 4 μL Biotin-tagged BIM protein peptide. After 1 hour of reaction, 5 μL of each Anti-His and streptavidin-tagged XL665 antibody diluents diluted with a detection buffer were added. After incubating at room temperature for 4 hours, the values were read using the Envision multifunctional microplate reader to detect the effect of the compound to be tested on the binding ability of BCL2 to Bim protein peptides.

Sequence of BCL2 (P10415 whole entry): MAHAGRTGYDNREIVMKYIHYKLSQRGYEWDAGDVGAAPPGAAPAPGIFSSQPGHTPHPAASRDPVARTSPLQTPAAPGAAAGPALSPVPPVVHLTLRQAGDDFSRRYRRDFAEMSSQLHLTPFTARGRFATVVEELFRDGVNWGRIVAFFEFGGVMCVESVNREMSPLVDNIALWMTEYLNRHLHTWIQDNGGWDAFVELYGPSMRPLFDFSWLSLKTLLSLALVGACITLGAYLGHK

IC50, < 10 nM:
COc1ccc(CN2CCN(C3CC4(CCN(c5ccc(C(=O)NS(=O)(=O)c6cc([N+](=O)[O-])c(NCC7(F)CCOCC7)c7[nH]cnc67)c(N6CCOc7nc8[nH]ccc8cc76)c5)CC4)C3)C(c3ccccc3C(C)C)C2)cc1 (stereo not drawn) [compound 093, 2-(2,3-dihydropyrrolo[3′,2′:5,6]pyridino[2,3-b][1,4]oxazin-1 (6H)-yl)-N-((7-(((4-fluorotetrahydro-2H-pyran-4-yl)methyl)amino)-6-nitro-1H-benzo[d]imidazol-4-yl)sulfonyl)-4-(2-(2-(2-isopropylphenyl)-4-(4-methoxybenzyl)piperazin-1-yl)-7-azaspiro[3.5]non-7-yl)benzamide]
CC(C)c1ccccc1[C@@H]1CN(Cc2ccncc2)CCN1C1CC2(CCN(c3cc(Oc4cnc5[nH]ccc5c4)c(C(=O)NS(=O)(=O)c4ccc(NCC5(F)CCOCC5)c([N+](=O)[O-])c4)cc3F)CC2)C1 [compound 211, (R)-2-((1H-pyrrolo[2,3-b]pyrid-5-yl)oxy)-5-fluoro-N-((4-(((4-fluorotetrahydro-2H-pyran-4-yl)methyl)amino)-3-nitrophenyl)sulfonyl)-4-(2-(2-(2-isopropylphenyl)-4-(pyrid-4-ylmethyl)piperazin-1-yl)-7-azaspiro[3.5]non-7-yl)benzamide]
COc1ccc(CN2CCN(C3CC4(CCN(c5cc(Oc6cnc7[nH]ccc7c6)c(C(=O)NS(=O)(=O)c6cc([N+](=O)[O-])c(NCC7(F)CCOCC7)c7ocnc67)cn5)CC4)C3)[C@H](c3ccccc3C(C)C)C2)cc1 [compound 133, (R)-4-((1H-pyrrolo[2,3-b]pyridine-5-yl)oxy)-N-((7-(((4-fluorotetrahydro-2H-pyran-4-yl)methyl)amino)-6-nitrobenzo[d]oxazol-4-yl)sulfonyl)-6-(2-(2-(2-isopropylphenyl)-4-(4-methoxybenzyl)piperazin-1-yl)-7-azaspiro[3.5]non-7-yl) nicotinamide]
CC(C)c1ccccc1[C@@H]1CN(Cc2ccccn2)CCN1C1CC2(CCN(c3cc(Oc4cnc5[nH]ccc5c4)c(C(=O)NS(=O)(=O)c4ccc(NC[C@H]5CC[C@](C)(O)CC5)c([N+](=O)[O-])c4)cc3F)CC2)C1 [compound 233, 2-((1H-pyrrolo[2,3-b]pyrid-5-yl)oxy)-5-fluoro-N-((4-((((1r, 4r)-4-hydroxy-4-methylcyclohexyl)methyl)amino)-3-nitrophenyl)sulfonyl)-4-(2-((R)-2-(2-isopropylphenyl)-4-(pyrid-2-ylmethyl)piperazin-1-yl)-7-azaspiro[3.5]non-7-yl)benzamide]
COc1ccc(CN2CCN(C3CC4(CCN(c5ccc(C(=O)NS(=O)(=O)c6cc([N+](=O)[O-])c(NC[C@H]7CC[C@](C)(O)CC7)c7[nH]cnc67)c(N6CCOc7nc8[nH]ccc8cc76)c5)CC4)C3)C(c3ccccc3C(C)C)C2)cc1 (stereo partly drawn) [compound 089, 2-(2,3-dihydropyrrolo[3′,2′:5,6]pyridino[2,3-b][1,4]oxazin-1 (6H)-yl)-N-((7-((((1r,4r)-4-hydroxy-4-methylcyclohexyl)methyl)amino)-6-nitro-1H-benzo[d]imidazol-4-yl)sulfonyl)-4-(2-(2-(2-isopropylphenyl)-4-(4-methoxybenzyl)piperazin-1-yl)-7-azaspiro[3.5]non-7-yl)benzamide]
COc1ccc(CN2CCN(C3CC4(CCN(c5ccc(C(=O)NS(=O)(=O)c6cc([N+](=O)[O-])c(NC[C@H]7COCCO7)c7c6OCO7)c(Oc6cnc7[nH]ccc7c6)c5)CC4)C3)[C@H](c3ccccc3C(C)C)C2)cc1 [compound 148, N-((7-((((S)-1,4-dioxan-2-yl)methyl)amino)-6-nitrobenzo[d][1,3]dioxocyclopent-4-yl)sulfonyl)-2-((1H-pyrrolo[2,3-b]pyrid-5-yl)oxy)-4-(2-((R)-2-(2-isopropylphenyl)-4-(4-methoxybenzyl)piperazin-1-yl)-7-azaspiro[3.5]non-7-yl)benzamide]
CC(C)c1ccccc1[C@@H]1CCCN1C1CC2(CCN(c3cc(Oc4cnc5[nH]ccc5c4)c(C(=O)NS(=O)(=O)c4cc([N+](=O)[O-])c(NCC5(F)CCN(C(C)C)CC5)c5[nH]cnc45)cc3F)CC2)C1 [compound 022, (S)-2-((1H-pyrrolo[2,3-b]pyrid-5-yl)oxy)-5-fluoro-N-((7-(((4-fluoro-1-isopropylpiperid-4-yl)methyl)amino)-6-nitro-1H-benzo[d]imidazol-4-yl)sulfonyl)-4-(2-(2-(2-isopropylphenyl)pyrrolidin-1-yl)-7-azaspiro[3.5]non-7-yl)benzamide]
COc1ccc(CN2CCN(C3CC4(CCN(c5ccc(C(=O)NS(=O)(=O)c6cc([N+](=O)[O-])c(NC[C@H]7CC[C@](C)(O)CC7)c7[nH]cnc67)c(N6CCCOc7nc8[nH]ccc8cc76)c5)CC4)C3)C(c3ccccc3C(C)C)C2)cc1 (stereo partly drawn) [compound 090, 2-(3,4-dihydro-2H-pyrrolo[3′,2′:5,6]pyridino[2,3-b][1,4]oxazacyclohept-1 (7H)-yl)-N-((7-((((1r,4r)-4-hydroxy-4-methylcyclohexyl)methyl)amino)-6-nitro-1H-benzo[d]imidazol-4-yl)sulfonyl)-4-(2-(2-(2-isopropylphenyl)-4-(4-methoxybenzyl)piperazin-1-yl)-7-azaspiro[3.5]non-7-yl)benzamide]
COc1ccc(CN2CCN(C3CC4(C3)CN(c3cc(Oc5cnc6[nH]ccc6c5)c(C(=O)NS(=O)(=O)c5ccc(NCC6(F)CCN(C7COC7)CC6)c([N+](=O)[O-])c5)cn3)C4)C(c3ccccc3C(C)C)C2)cc1 (stereo not drawn) [compound 054]
COc1cc(CN2CCN(C3CC4(CCN(c5ccc(C(=O)NS(=O)(=O)c6cc([N+](=O)[O-])c(NCC7(F)CCOCC7)c7c6OCO7)c(Oc6cnc7[nH]ccc7c6)c5)CC4)C3)[C@H](c3ccccc3C(C)C)C2)cc2cc(C)oc12 [compound 171, (R)-2-((1H-pyrrolo[2,3-b]pyrid-5-yl)oxy)-N-((7-(((4-fluorotetrahydro-2H-pyran-4-yl)methyl)amino)-6-nitrobenzo[d][1,3]dioxocyclopent-4-yl)sulfonyl)-4-(2-(2-(2-isopropylphenyl)-4-((7-methoxy-2-methylbenzofuran-5-yl)methyl)piperazin-1-yl)-7-azaspiro[3.5]non-7-yl)benzamide]
COc1ccc(CN2CCN(C3CC4(CCN(c5cc(Oc6cnc7[nH]ccc7c6)c(C(=O)NS(=O)(=O)c6cc([N+](=O)[O-])c(NC[C@H]7CC[C@](C)(O)CC7)c7c6OCO7)cn5)CC4)C3)[C@H](c3ccccc3C(C)C)C2)cc1 [compound 137, 4-((1H-pyrrolo[2,3-b]pyrid-5-yl)oxy)-N-((7-((((1r, 4r)-4-hydroxy-4-methylcyclohexyl)methyl)amino)-6-nitrobenzo[d][1,3]dioxocyclopent-4-yl)sulfonyl)-6-(2-((R)-2-(2-isopropylphenyl)-4-(4-methoxybenzyl)piperazin-1-yl)-7-azaspiro[3.5]non-7-yl) nicotinamide]
CC(C)c1ccccc1[C@@H]1CCCN1C1CC2(CCN(c3cc(Oc4cnc5[nH]ccc5c4)c(C(=O)NS(=O)(=O)c4cc([N+](=O)[O-])c(NC[C@H]5CC[C@](C)(O)CC5)c5ocnc45)cc3F)CC2)C1 [compound 097, 2-((1H-pyrrolo[2,3-b]pyrid-5-yl)oxy)-5-fluoro-N-((7-((((1r, 4r)-4-hydroxy-4-methylcyclohexyl)methyl)amino)-6-nitrobenzo[d]oxazol-4-yl)sulfonyl)-4-(2-((S)-2-(2-isopropylphenyl)pyrrolidin-1-yl)-7-azaspiro[3.5]non-7-yl)benzamide]
CC(C)c1ccccc1[C@@H]1CN(Cc2cnn(C)c2)CCN1C1CC2(CCN(c3cc(Oc4cnc5[nH]ccc5c4)c(C(=O)NS(=O)(=O)c4ccc(NC[C@H]5CC[C@](C)(O)CC5)c([N+](=O)[O-])c4)cc3F)CC2)C1 [compound 229, 2-((1H-pyrrolo[2,3-b]pyrid-5-yl)oxy)-5-fluoro-N-((4-((((1r, 4r)-4-hydroxy-4-methylcyclohexyl)methyl)amino)-3-nitrophenyl)sulfonyl)-4-(2-((R)-2-(2-isopropylphenyl)-4-((1-methyl-1H-pyrazole-4-yl)methyl)piperazin-1-yl)-7-azaspiro[3.5]non-7-yl)benzamide]
COc1ccc(CN2CCN(C3CC4(CCN(c5ccc(C(=O)NS(=O)(=O)c6cc([N+](=O)[O-])c(NC[C@H]7CC[C@](C)(O)CC7)c7c6OCO7)c(Oc6cnc7[nH]ccc7c6)c5)CC4)C3)[C@H](c3ccccc3C(C)C)C2)cn1 [compound 174, 2-((1H-pyrrolo[2,3-b]pyrid-5-yl)oxy)-N-((7-((((1r, 4r)-4-hydroxy-4-methylcyclohexyl)methyl)amino)-6-nitrobenzo[d][1,3]dioxocyclopent-4-yl)sulfonyl)-4-(2-((R)-2-(2-isopropylphenyl)-4-((6-methoxypyrid-3-yl)methyl)piperazin-1-yl)-7-azaspiro[3.5]non-7-yl)benzamide]
CC(C)c1ccccc1[C@@H]1CN(Cc2ccc(F)cc2)CCN1C1CC2(CCN(c3ccc(C(=O)NS(=O)(=O)c4cc([N+](=O)[O-])c(NCC5(F)CCOCC5)c5c4OCO5)c(Oc4cnc5[nH]ccc5c4)c3)CC2)C1 [compound 167, (R)-2-((1H-pyrrolo[2,3-b]pyrid-5-yl)oxy)-4-(2-(4-(4-fluorobenzyl)-2-(2-isopropylphenyl)piperazin-1-yl)-7-azaspiro[3.5]non-7-yl)-N-((7-(((4-fluorotetrahydro-2H-pyran-4-yl)methyl)amino)-6-nitrobenzo[d][1,3]dioxocyclopent-4-yl)sulfonyl)benzamide]
